Reference: PMC6742494 (ACS infectious diseases, 2016)
≈ marks a conversion by molar mass, not a printed value. Where “and” joins values, the source holds several entries; their conditions need not be identical. Equal values may be shown once.

Columns and labels:
[1] = tested on: Mtb T 27 (INH-resistant); assay: microbe, parasite or virus in culture; type: cell-based; details: Mycobacterium tuberculosis
[2] = tested on: Mtb Beijing 22 (RIF-resistant); assay: microbe, parasite or virus in culture; type: cell-based; details: Mycobacterium tuberculosis
[3] = tested on: Mtb Haarlem 9 (RIF-resistant); assay: microbe, parasite or virus in culture; type: cell-based; details: Mycobacterium tuberculosis
[4] = tested on: Mtb H37Rv resistant isolates with mmpL3 mutations; type: cell-based, Mycobacterium tuberculosis

SMILES | MIC [1] [µg/mL] | MIC [2] [µg/mL] | MIC [3] [µg/mL] | susceptibility of DA5^R and TBL-140^R strains [4] | MIC [4]
FC(F)(F)Oc1ccc(Oc2ccc(CNCCNC3C4CC5CC(C4)CC3C5)cc2)cc1 (centres unmarked) [Compound 8, N^1-adamantan-2-yl-N^2-(4-(4-(trifluoro-methoxy)phenoxy)benzyl)ethane-1,2-diamine] | 0.58 (≈ 1.26 µM) | 1.2 (≈ 2.61 µM) | 1.2 (≈ 2.61 µM) | – | –
CC[C@@H](CO)NCCN[C@@H](CC)CO [EMB, ethambutol] | 1 (≈ 4.89 µM) | 1 (≈ 4.89 µM) | 1 (≈ 4.89 µM) | identical susceptibility as wild-type H37Rv | –
NNC(=O)c1ccncc1 [INH, isoniazid] | > 0.8 | 0.025 (≈ 0.182 µM) | 0.025 (≈ 0.182 µM) | identical susceptibility as wild-type H37Rv | –
CO[C@H]1/C=C/O[C@@]2(C)Oc3c(C)c(O)c4c(O)c(c(/C=N/N5CCN(C)CC5)c(O)c4c3C2=O)NC(=O)/C(C)=C\C=C\[C@H](C)[C@H](O)[C@@H](C)[C@@H](O)[C@@H](C)[C@H](OC(C)=O)[C@@H]1C [RIF, rifampicin] | 0.0125 (≈ 0.0152 µM) | – | – | identical susceptibility as wild-type H37Rv | –
CC(C)=CCC/C(C)=C/CNCCNC1C2CC3CC(C2)CC1C3 (centres unmarked) [SQ109] | – | – | – | – | 6.25 µg/mL and 12.5 µg/mL
